Data set [1] addresses Fatty acid-binding protein, adipocyte (Homo sapiens, UniProt P15090). Put plainly: Displacement of 1,8-ANS from human recombinant full length N-terminal his-tagged FABP4 expressed in Escherichia coli BL21 (DE3) incubated for 3 mins by fluorescence based assay.
In data set [2] the target is Fatty acid-binding protein 5 (Homo sapiens, UniProt Q01469). Put plainly: Displacement of 1,8-ANS from human recombinant full length N-terminal his-tagged FABP5 expressed in Escherichia coli BL21 (DE3) incubated for 3 mins by fluorescence based assay.
Sequence of Fatty acid-binding protein 5 (Q01469 whole entry): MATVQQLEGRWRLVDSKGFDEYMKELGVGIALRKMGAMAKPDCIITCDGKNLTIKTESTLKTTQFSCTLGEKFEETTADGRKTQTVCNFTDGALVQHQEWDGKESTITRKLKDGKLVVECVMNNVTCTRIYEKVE
Another data set relates to 3T3-L1. As to the kind of experiment: Cytotoxicity against mouse 3T3L1 cells assessed as reduction in cell viability at 30 to 60 uM incubated for 24 hrs by MTT assay. In kind it is cell-based. As to conditions: 3t3-l1, 24 h.
Data set [3] concerns RAW264.7. As to the kind of experiment: Cytotoxicity against mouse RAW264.7 cells assessed as reduction in cell viability at 30 to 60 uM incubated for 24 hrs by MTT assay. Type of data set: cell-based. The following applies: raw264.7, 24 h. A general note: Tetrazolium dyes change colour on reduction, which living cells bring about.
Data set [4] deals with RAW264.7. Put plainly: Antiinflammatory activity against mouse RAW264.7 cells assessed as inhibition of LPS-induced MCP-1 gene expression level at 30 uM preincubated for 12 hrs followed by LPS addition and measured after 6 hrs by qRT PCR analysis relative to control. In kind it is functional.
The test system of data set [5] is RAW264.7. As to the kind of experiment: Antiinflammatory activity against mouse RAW264.7 cells assessed as inhibition of LPS-induced TNFalpha gene expression level at 30 uM preincubated for 12 hrs followed by LPS addition and measured after 6 hrs by qRT PCR analysis relative to control. In kind it is functional.
The target of data set [6] is Fatty acid-binding protein, heart (Homo sapiens, UniProt P05413). As to the kind of experiment: Displacement of 1,8-ANS from FABP3 (unknown origin) incubated for 3 mins by fluorescence based assay.
Sequence of Fatty acid-binding protein, heart (P05413 whole entry): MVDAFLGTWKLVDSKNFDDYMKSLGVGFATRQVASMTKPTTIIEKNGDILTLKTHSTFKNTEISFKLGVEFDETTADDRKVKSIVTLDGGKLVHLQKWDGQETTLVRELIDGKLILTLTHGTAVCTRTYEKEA

Experimental findings from ChEMBL document CHEMBL4396930, “Identification of new dual FABP4/5 inhibitors based on a naphthalene-1-sulfonamide FABP4 inhibitor” (Bioorg Med Chem, 2019) are described below.

Sequence of Fatty acid-binding protein, adipocyte (P15090 whole entry): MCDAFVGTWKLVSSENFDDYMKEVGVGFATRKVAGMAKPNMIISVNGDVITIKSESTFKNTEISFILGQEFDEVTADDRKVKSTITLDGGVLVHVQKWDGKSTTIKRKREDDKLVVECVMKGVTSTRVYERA

`COc1c(-c2ccoc2)cc(S(=O)(=O)Nc2ccc(F)c(C(=O)O)c2)c2ccccc12`: in data set [1], the IC50 worked out at 3.53 µM.
Same read-out and setting: then `COc1c(-c2ccccc2)cc(S(=O)(=O)Nc2ccc(F)c(C(=O)O)c2)c2ccccc12`, with 1.19 µM.
As to `CCCCCCOc1ccc(S(=O)(=O)Nc2ccc(F)c(C(=O)O)c2)c2ccccc12`, the IC50 amounted to 2.43 µM in data set [1] and 4.17 µM in data set [2].
The corresponding values for `CCCCCCCCCCOc1ccc(S(=O)(=O)Nc2ccc(F)c(C(=O)O)c2)c2ccccc12` are 4.73 µM and 4.48 µM.
Taken in the same sequence, the figures for `O=C(O)c1cc(NS(=O)(=O)c2ccc(OC3CCCCC3)c3ccccc23)ccc1F` were 2.2 µM and 7.66 µM.
For the molecule `O=C(O)c1cc(NS(=O)(=O)c2ccc(OCC3CCCCC3)c3ccccc23)ccc1F`, the concentration for half-maximal inhibition (IC50) was found to be 2.41 µM in data set [1] and 8.12 µM in data set [2].
Taken in the same sequence, the figures for `COc1c(-c2ccc(F)cc2)cc(S(=O)(=O)Nc2ccc(F)c(C(=O)O)c2)c2ccccc12` were 1.74 µM and 10 µM.
In the case of `COc1c(-c2ccc(O)cc2)cc(S(=O)(=O)Nc2ccc(F)c(C(=O)O)c2)c2ccccc12`, the half-inhibitory concentration (IC50) in data set [1] was determined as 1.19 µM.
As for `O=C(O)c1cc(NS(=O)(=O)c2ccc(OCCCC3CCCCC3)c3ccccc23)ccc1F`, the IC50 came to 3.59 µM in data set [1] and 3.63 µM in data set [2].
On to `COc1c(-c2ccc(Cl)c(Cl)c2)cc(S(=O)(=O)Nc2ccc(F)c(C(=O)O)c2)c2ccccc12`, for which the half-maximal inhibitory concentration (IC50) in data set [1] is 4.38 µM.
Still for that read-out and setting: then `COc1c(-c2cccc(N)c2)cc(S(=O)(=O)Nc2ccc(F)c(C(=O)O)c2)c2ccccc12`, with 1.7 µM; and `COc1c(-c2cccc(O)c2)cc(S(=O)(=O)Nc2ccc(F)c(C(=O)O)c2)c2ccccc12`, with 1.89 µM.
Still for that read-out and setting: the result for `O=C(O)c1cc(NS(=O)(=O)c2ccc(OCc3ccccc3)c3ccccc23)ccc1F` reads 3.15 µM.
Take `O=C(O)c1cc(NS(=O)(=O)c2ccc(OCCC3CCCCC3)c3ccccc23)ccc1F`: the Activity result with 3T3-L1 and with RAW264.7 [3] was “Non-Toxic” throughout. Further, the results for the IC50 in data set [1], in data set [2] and in data set [6] were 1.97 µM, 4.85 µM and 55.6 µM, respectively. The inhibition at 30 µM in the data set with RAW264.7 [4] worked out at 29%; in the data set with RAW264.7 [5], 24%.
`CCOc1ccc(S(=O)(=O)Nc2ccc(F)c(C(=O)O)c2)c2ccccc12`: the concentration for half-maximal inhibition (IC50) in data set [1] came to 2.64 µM.
Take `CCCCCOc1ccc(S(=O)(=O)Nc2ccc(F)c(C(=O)O)c2)c2ccccc12`: the IC50 was found to be 2.99 µM in data set [1] and 8.32 µM in data set [2].
The corresponding values for `CCCCCCCCOc1ccc(S(=O)(=O)Nc2ccc(F)c(C(=O)O)c2)c2ccccc12` are 4.04 µM and 4.19 µM.
The corresponding values for `CCCCCCCOc1ccc(S(=O)(=O)Nc2ccc(F)c(C(=O)O)c2)c2ccccc12` are 2.3 µM and 2.76 µM.
With `COc1c(-c2ccncc2)cc(S(=O)(=O)Nc2ccc(F)c(C(=O)O)c2)c2ccccc12`, in data set [1], the IC50 was 3.54 µM.
Take `Cc1c(Cl)cccc1OCc1cc(=O)n2nc(-c3ccccc3)nc2[nH]1`: the Activity entry with 3T3-L1 and in the data set on RAW264.7 [3] was “Toxic” throughout.
With `COc1c(-c2ccc(F)c(F)c2)cc(S(=O)(=O)Nc2ccc(F)c(C(=O)O)c2)c2ccccc12`, the half-maximal inhibitory concentration (IC50) in data set [1] is 2.98 µM.
Regarding `O=C(O)c1cc(NS(=O)(=O)c2ccc(OCC34CC5CC(CC(C5)C3)C4)c3ccccc23)ccc1F`, the IC50 turned out to be 14.8 µM in data set [1] and 4.61 µM in data set [2].
Turning to `COc1ccc(S(=O)(=O)Nc2ccc(F)c(C(=O)O)c2)c2ccccc12`, the Activity result with 3T3-L1 and in the data set with RAW264.7 [3] was “Non-Toxic” throughout.
Turning to `CCCCCCCCCCCCOc1ccc(S(=O)(=O)Nc2ccc(F)c(C(=O)O)c2)c2ccccc12`, the concentration for half-maximal inhibition (IC50) in data set [1] came out at 24.8 µM.
For the molecule `COc1c(-c2ccc(F)c(Cl)c2)cc(S(=O)(=O)Nc2ccc(F)c(C(=O)O)c2)c2ccccc12`, the Activity result with 3T3-L1 and in the data set on RAW264.7 [3] was “Non-Toxic” each time. Further, the results for the concentration for half-maximal inhibition (IC50) in data set [1] and in data set [6] were 1.58 µM and 46.8 µM, respectively. Further, the inhibition at 30 µM was determined as 32% in the data set on RAW264.7 [4] and 23% in the data set on RAW264.7 [5].
For `O=C(O)c1cc(NS(=O)(=O)c2ccc(OC3CCCCCC3)c3ccccc23)ccc1F`, the IC50 worked out at 2.37 µM in data set [1] and 3.3 µM in data set [2].

One may read the IC50 as the midpoint of a concentration-inhibition curve. The inhibition is the share of the control response that was lost under treatment.
